Experimental data published in publication PMC4163382, “Symbiotic Plant Peptides Eliminate Candida albicans Both In Vitro and in an Epithelial Infection Model and Inhibit the Proliferation of Immortalized Human Cells” (BioMed Research International, 2014).

What was measured:
[1] = system: PK E6/E7 vaginal epithelial cells; test: Real-Time Cell Analysis (RTCA), proliferation of human epithelial cells; type: cell-based; conditions: 3 hours treatment in PBgluc, cell index 40 hours after treatment
Method: (§1) The immortalized human vaginal epithelial cell line PK E6/E7 [15] was cultured in serum-free CKM supplemented with 0.005 μg/mL recombinant epidermal growth factor, 50 μg/mL bovine pituitary extract, L-glutamine, and antibiotic/antimycotic solution (Life Technologies) in a CO2 thermostat at 37°C [16]. Cells at 60–70% confluence were used in subsequent experiments.
Real-Time Cell Analysis (RTCA). 7 × 10^4 PK E6/E7 cells per well were seeded in 96-well E-plates (ACEA Biosciences) in which the bottoms of the wells were covered with microelectrodes and the epithelial cells were allowed to attach to the bottom of the wells for 20 hours. CKM was then aspirated and the cells were treated with 100 μL of the peptides diluted in PBgluc. […] The cell index at the beginning of the measurement after treatment was considered as 100% and values measured at 40 hours were expressed (see Supplementary Figure 1in Supplementary Materials available online at http://dx.doi.org/10.1155/2014/320796). […]
(§2) MTT assays and impedance measurements were performed in at least four technical parallels and two biological replicates; all the data are presented as mean ± standard deviation. Significance was calculated with Newman-Keuls post hoc test using the GraphPad Prism version 5 for Windows and a probability (P) value of less than 0.05 was considered significant.

[2] = system: PK E6/E7 vaginal epithelial cells; test: MTT assay, cytotoxicity on human epithelial cells; type: cell-based; conditions: MTT assay, PBgluc, 12.5 to 100 μg/mL, for cationic peptides antifungal concentration range (<25 μg/mL)
Method: as §1
MTT Assay. PK E6/E7 vaginal epithelial cells were seeded in the wells of a 96-well plate at a density of 1 × 10^4 cells per well in a final volume of 100 μL. CKM was then aspirated and 100 μL of the appropriate peptide diluted in PBgluc was added. After 3 hours of incubation at 37°C, the peptide solution was removed, and the cells were let to regenerate in CKM for 24 hours. Then 5 mg/mL 3-[4,5-dimethylthiazol-2-yl]-2,5-diphenyltetrazolium bromide (MTT) was added to each well and the plate was placed to 37°C for 4 hours. The amount of formazan formed by the activity of the mitochondrial succinate dehydrogenase of living cells was measured by using a microtiter plate reader (FLUOstar OPTIMA) at the wavelength of 560 nm.
10 μg/mL of primycin, a macrolide lactone antibiotic complex that rapidly kills PK cells, was used as a control for cytotoxicity in both assays.
as §2

[3] = system: PK E6/E7 vaginal epithelial cells infected with C. albicans WO-1; test: Vaginal epithelial cell - C. albicans coculture (RTCA); type: cell-based, human; conditions: PK E6/E7 + C. albicans WO-1, MOI of 5, 3 hours coculture then peptide 3 hours in PBgluc at both 25 and 50 μg/mL, RTCA at 40 hours
Method: PK E6/E7 cells were seeded in 96-well E-plates as described above for RTCA. On the next day, an overnight culture of C. albicans WO-1 was diluted to OD = 1 and let to grow until OD = 1.5–2. The fungal cell suspension was diluted in antibiotic/antimycotic-free CKM and was added to the human cells with a multiplicity of infection (MOI) of 5. After 3 hours of coculture at 37°C, CKM medium was replaced with NCR peptides in PBgluc. After 3 hours of incubation, peptides were removed and 200 μL of fresh antibiotic/antimycotic-free CKM was added. Subsequent measurements were performed as described above.
as §2

C. albicans WO-1 cells = test: Cell permeability assay (calcein release); type: cell-based, Candida albicans; conditions: calcein-loaded C. albicans WO-1, 10 mM potassium phosphate buffer pH 7.0, peptide 50 μg/mL, fluorescence 485/530 nm
Method: Cell permeability was monitored by the release of the intracellularly accumulated dye calcein. Overnight C. albicans WO-1 cells were washed twice with and resuspended in 10 mM potassium phosphate buffer (pH = 7.0) at a concentration of 10^7 cells mL^−1. Cells were loaded with acetomethoxy-calcein at a final concentration of 5 μM for 2 hours at room temperature. Cells were washed three times to remove the extracellular dye and then 100 μL of the suspension was transferred to FIA black 96-well plates. NCR peptides were then added at a concentration of 50 mg/L, and the release of calcein (formed by the cells' esterases) was measured by its fluorescence in a microtiter plate reader (FLUOstar OPTIMA) at excitation and emission wavelengths of 485 nm and 530 nm, respectively. Calcein efflux was calculated as previously reported.

AFERTETRMLTIPCTSDANCPKVISPCHTKCFDGFCGWYIEGSYEGP [NCR001, anionic chemically synthesized mature NCR peptide of Medicago truncatula]
Effect on proliferation of the human cells [1]: no negative effect | Effect on viability of the human cells [2]: no negative effect | Prevention of C. albicans induced epithelial cell death [3]: unable to prevent vaginal epithelial cell death | Calcein (dye) efflux (C. albicans WO-1 cells): no calcein release
